# Measured values: patent US20240189279A1, “IMMUNOMODULATORY COMPOSITIONS AND METHODS OF USE THEREOF” (THE TEXAS A&M UNIVERSITY SYSTEM, priority 2022, published 2024)
# How the values were obtained:
# [1] = tested on: TNFα and IL-1β expression in RAW 264.7 macrophages; experiment: TNFα and IL-1β expression (qRT-PCR) in RAW 264.7 macrophages, palmitate and LPS two-hit model; format: cell-based, murine
# [2] = tested on: palmitate and LPS stimulated macrophages; experiment: Cytokine production in palmitate and LPS stimulated macrophages; format: cell-based
# AhR = molecular target: T1, AhR (Homo sapiens, UniProt P35869); experiment: Cell-based AhR reporter assays; conditions: extent comparable to other endogenous Trp-derived ligands (e.g., kynurenine)
# T1 sequence (P35869 11-848): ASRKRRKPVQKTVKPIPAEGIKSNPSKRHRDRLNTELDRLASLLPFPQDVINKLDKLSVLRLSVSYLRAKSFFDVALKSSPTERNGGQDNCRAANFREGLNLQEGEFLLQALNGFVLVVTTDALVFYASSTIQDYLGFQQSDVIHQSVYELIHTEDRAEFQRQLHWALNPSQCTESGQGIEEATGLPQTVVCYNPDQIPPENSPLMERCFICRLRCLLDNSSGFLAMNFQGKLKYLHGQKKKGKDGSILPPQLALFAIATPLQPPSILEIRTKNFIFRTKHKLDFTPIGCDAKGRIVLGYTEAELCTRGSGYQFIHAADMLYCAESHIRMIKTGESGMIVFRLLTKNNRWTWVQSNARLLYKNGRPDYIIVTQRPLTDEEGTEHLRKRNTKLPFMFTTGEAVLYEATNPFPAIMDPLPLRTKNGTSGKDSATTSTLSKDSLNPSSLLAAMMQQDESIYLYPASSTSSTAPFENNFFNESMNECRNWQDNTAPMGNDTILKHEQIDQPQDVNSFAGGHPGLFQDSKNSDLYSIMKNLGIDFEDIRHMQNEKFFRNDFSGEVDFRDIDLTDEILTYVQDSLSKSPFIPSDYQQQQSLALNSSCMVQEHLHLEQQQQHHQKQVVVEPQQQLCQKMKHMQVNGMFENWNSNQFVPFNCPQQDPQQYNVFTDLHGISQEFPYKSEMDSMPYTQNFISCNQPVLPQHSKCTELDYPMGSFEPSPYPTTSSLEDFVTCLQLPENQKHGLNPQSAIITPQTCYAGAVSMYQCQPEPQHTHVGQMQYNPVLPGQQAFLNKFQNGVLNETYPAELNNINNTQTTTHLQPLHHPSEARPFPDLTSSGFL
# [3] = tested on: endotoxin-treated murine bone marrow derived macrophages; experiment: Cytokine expression in endotoxin-treated bone marrow derived macrophages; format: cell-based
# [4] = tested on: colitis and fungal infection; conditions: administration of indole-3-aldehyde; cited from earlier work
# NSAID enteropathy = conditions: indole administration; cited from earlier work
# [5] = RAW 264.7, 1 mM AICAR 4 h, 300 μM palmitate 18 h, 10 ng/ml LPS 6 h
smiles,measurement,setting,value
"NC(=O)c1ncn([C@@H]2O[C@H](COP(=O)(O)O)[C@@H](O)[C@H]2O)c1N [AICAR, 5-aminoimidazole-4-carboxamide ribonucleotide]",attenuation of palmitate and LPS stimulated increase in IL-1β expression,[1]; [5],80%
same,attenuation of palmitate and LPS stimulated increase in TNFα expression,[1]; [5],30%
Cc1ccccc1N=Nc1ccc(NC(=O)c2ccnn2C)c(C)c1 [CH223191],effect of AhR inhibitor on I3A's reduction of palmitate and LPS induced TNFα and IL-β expression,"[1]; RAW 264.7, CH223191 5 μM added 10 min before 1 mM I3A",did not alter I3A's effect
"NCCc1c[nH]c2ccccc12 [TA, tryptamine]","production of TNF-α, IL-1β, and MCP-1",[2],"dose-dependently attenuated the production of TNF-α, IL-1β, and MCP-1"
same,AhR activation,AhR,dose-dependently activate the AhR
same,"expression of IL-1, TNF-α, and MCP-1",[3],"dose-dependently downregulate the expression of IL-1, TNF-α, and MCP-1"
O=Cc1c[nH]c2ccccc12 [indole-3-aldehyde],IL-22 production from natural killer (NK) cells,[4],induced IL-22 production from natural killer (NK) cells
same,mucosal inflammation,[4],protected against mucosal inflammation
c1ccc2[nH]ccc2c1 [indole],mucosal inflammation and injury,NSAID enteropathy,decreased mucosal inflammation and injury
